Patent US20190365818A1, “GENETICALLY-TAGGED STEM CELL LINES AND METHODS OF USE” (ALLEN INSTITUTE, priority 2017, published 2019)
Entries after “also recorded” stand apart in the source; their conditions may differ.

Key:
[1] = tested on: hiPSC colonies; assay: Image-based drug perturbation of hiPSC colonies: colony and cell morphology; parameters: species or system human
Source text: (§1) The pipeline was prototyped using a small suite of well-characterized compounds that include brefeldin A, paclitaxel, rapamycin, wortmannin and staurosporine (FIG. 26A). Low-resolution imaging (24× magnification) was used to test a matrix of concentrations and time points for each compound of interest to establish an initial set of conditions for each perturbation. hiPSC colonies were monitored for morphologic changes using transmitted light (FIG. 26B) and an endogenously GFP-tagged structure, such as microtubules (FIG. 26C). After establishing an end point response for several compounds, high-resolution (120× magnification) imaging of multiple cell lines was performed under standardized perturbation parameters, in the presence of dyes to label the nucleus and cell membrane for reference purposes (FIG. 27). […] Cells were treated with the indicated perturbation agent at a pre-selected concentration and time point established in phase I.

[2] = tested on: desmosomes; assay: Image-based drug perturbation of GFP-tagged hiPSC lines: desmosomes (3D object count); type: cell-based, human
Source text: (§2) The pipeline was prototyped using a small suite of well-characterized compounds that include brefeldin A, paclitaxel, rapamycin, wortmannin and staurosporine (FIG. 26A). Low-resolution imaging (24× magnification) was used to test a matrix of concentrations and time points for each compound of interest to establish an initial set of conditions for each perturbation. hiPSC colonies were monitored for morphologic changes using transmitted light (FIG. 26B) and an endogenously GFP-tagged structure, such as microtubules (FIG. 26C). After establishing an end point response for several compounds, high-resolution (120× magnification) imaging of multiple cell lines was performed under standardized perturbation parameters, in the presence of dyes to label the nucleus and cell membrane for reference purposes (FIG. 27). […]
(§3) For drug-induced effects on cell junction reorganization, representative maximum intensity projections of a z-stack along the x-z axis are shown in FIG. 30. From these projections, the mean pixel intensity for the GFP channel along the x-axis, from the top of the image to the bottom, was measured to generate an intensity profile plot. […] To analyze the change in desmosome number, the number of 3D objects in a z-stack were counted using the 3D Object Counter tool in Fiji. […] Data were analyzed by Student's t-test (** p<0.01).

[3] = tested on: myosin; assay: Relative fluorescence quantification and z-axis intensity profiling: myosin; type: cell-based, human; conditions: for myosin organization through the thickness of the cell: z-axis intensity profiling
Source text: as §1
Fluorescence quantification of the 3D images were used to analyze drug-induced Golgi reorganization, cytoskeleton reorganization, and cell junction reorganization. To quantify the relative abundance of each structure of interest (e.g. Golgi as presented above), the pixel intensities of the GFP channel (488 nm) were summed across the entire z-stack. For each experiment, the same threshold was used to exclude background intensity noise across the control (DMSO) and experimental (perturbation agent) groups. The data were plotted by averaging z-stack data from a time interval (30-minute) and compared to the control DMSO data. Dunnett's multiple comparison test was used to perform one-way ANOVA between the different time intervals against the control group.

[4] = tested on: ZO-1; assay: Z-axis intensity profiling of 3D images: cell junction reorganization (ZO-1); type: cell-based, human; conditions: x-z maximum intensity projection, intensity profile plot
Source text: as §2, §3

[5] = tested on: actin; assay: Image-based drug perturbation of GFP-tagged hiPSC lines: actin; type: cell-based, human
Source text: as §1
(§4) Fluorescence quantification of the 3D images were used to analyze drug-induced Golgi reorganization, cytoskeleton reorganization, and cell junction reorganization. To quantify the relative abundance of each structure of interest (e.g. Golgi as presented above), the pixel intensities of the GFP channel (488 nm) were summed across the entire z-stack. […]

[6] = tested on: Golgi; assay: Fluorescence quantification of 3D images: drug-induced Golgi reorganization; type: cell-based, human; conditions: GFP channel intensity summed over z-stack, 30-minute intervals, vs DMSO
Source text: as §1, §4

[7] = tested on: microtubules; assay: Image-based drug perturbation of GFP-tagged hiPSC lines: microtubules; type: cell-based, human
Source text: as §1, §4

[8] = tested on: ER; assay: Image-based drug perturbation of GFP-tagged hiPSC lines: ER; type: cell-based, human; conditions: hiPS cells undergoing mitosis
Source text: as §1

[9] = tested on: cell junctions; assay: Image-based drug perturbation of GFP-tagged hiPSC lines: cell junctions; parameters: species or system human
Source text: as §1

[10] = 3D fluorescence quantification vs DMSO

CN[C@@H]1C[C@H]2O[C@@](C)([C@@H]1OC)n1c3ccccc3c3c4c(c5c6ccccc6n2c5c31)C(=O)NC4 [staurosporine]
effect on colony and cell morphology [1]: major effects on colony and cell morphology, inducing rearrangements in cell packing and shape
number of DSP-positive plaques ([2]; 3D Object Counter, Student's t-test p<0.01): increased in number
effect on desmosome localization ([2]; GFP-tagged hiPSC): induced re-localization of desmosomes; also recorded: desmosomes relocalized throughout the cell
myosin organization through the thickness of the cell [3]: induced reorganization of the myosin
distribution of ZO-1 along the z-axis [4]: redistribution of ZO-1 along the z-axis

(S)-nitro blebbistatin
relative actin protein abundance and organization [5, 10]: reorganization and relative decrease
effect on Golgi organization [6]: induced fragmentation of the organelle
relative myosin protein abundance and organization [3, 10]: reorganization and relative decrease
myosin organization through the thickness of the cell [3]: induced reorganization of the myosin
distribution of ZO-1 along the z-axis [4]: redistribution of ZO-1 along the z-axis

CC(=O)O[C@H]1C(=O)[C@@]2(C)[C@H]([C@H](OC(=O)c3ccccc3)[C@]3(O)C[C@H](OC(=O)[C@H](O)[C@@H](NC(=O)c4ccccc4)c4ccccc4)C(C)=C1C3(C)C)[C@]1(OC(C)=O)CO[C@@H]1C[C@@H]2O [paclitaxel]
effect on microtubule organization ([7]; GFP-tagged hiPSC, high-resolution (120x) imaging, vs DMSO control): increased microtubule bundle thickness and altered the shape and position of the mitotic spindle; also recorded: stabilized the microtubules
microtubule relative localized fluorescence intensity ([7]; over time, vs DMSO): trend of increased relative localized fluorescence intensity over time
effect on organization of the ER [8]: induced aberrant reorganization of the ER
effect on bulk organization of the actin bundles ([5]; GFP-tagged hiPSC): minimal effects
effect on bulk organization of cell junctions [9]: minimal effects

C[C@H]1CCC/C=C/[C@@H]2C[C@H](O)C[C@H]2[C@H](O)/C=C/C(=O)O1 [Brefeldin A, brefeldin A]
effect on Golgi organization [6]: induced dissociation of the golgi within 30 minutes
